Residue numbers refer to the chain shown, from its start.
Legend:
GLP-1R [1] = target: GLP-1R (Homo sapiens, UniProt P43220, W214A); assay: cAMP accumulation assay, GLP-1R WT, mutant or modified constructs; format: cell-based; parameters: Flag; expressed in transfected cells; host or cells: HEK293T; settings: GLP-1R W214A, HEK293T; for Emax: HEK-293T
Outline: (§1)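 HEK293T cells transiently expressing wild-type, mutant or modified human GLP-1R (HA signal peptide constructs) were used. Cells were stimulated with peptide agonists for 40 min at room temperature in HBSS with 0.5 mM IBMX and 0.1% BSA or casein. cAMP was quantified by LANCE Ultra TR-FRET (620/650 nm).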

GLP-1R [2] = target: GLP-1R (Homo sapiens, UniProt P43220, Y148A); assay: as above; format: cell-based; parameters: Flag; expressed in transfected cells; host or cells: HEK293T; settings: GLP-1R Y148A, HEK293T; for Emax: HEK-293T
Outline: as §1

GIPR [3] = target: T1, GIPR (Homo sapiens, UniProt P48546, Y36A); assay: Whole-cell binding assay, competition with 125I-GIP1-42; parameters: acylated tirzepatide to the full-length or modified; Flag; expressed in transfected cells; settings: GIPR Y36A, CHO-K1; for IC50: read-out: binding pIC50 (converted)
T1 sequence (P48546 22-466 Y36A): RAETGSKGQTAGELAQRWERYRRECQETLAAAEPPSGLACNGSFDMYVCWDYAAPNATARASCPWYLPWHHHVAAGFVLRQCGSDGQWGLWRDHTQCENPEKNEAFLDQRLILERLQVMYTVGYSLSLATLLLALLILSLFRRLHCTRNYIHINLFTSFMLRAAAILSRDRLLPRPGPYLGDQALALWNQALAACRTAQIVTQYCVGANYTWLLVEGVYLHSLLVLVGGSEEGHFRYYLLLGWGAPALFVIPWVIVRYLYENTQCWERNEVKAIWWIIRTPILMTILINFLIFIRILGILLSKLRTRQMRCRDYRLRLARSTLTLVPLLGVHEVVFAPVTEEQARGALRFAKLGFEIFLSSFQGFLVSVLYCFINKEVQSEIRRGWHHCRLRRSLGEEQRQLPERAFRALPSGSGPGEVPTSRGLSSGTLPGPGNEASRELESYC
Outline: (§2)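 Transiently transfected CHO-K1 cells expressing WT or mutant GIPR were washed in F-12 with 0.1% BSA or 0.1% casein and 33 mM HEPES, then incubated 2 h at 37 °C. After ice-cold PBS washes, cells were lysed and bound radioactivity counted (CPM).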

GIPR [4] = target: T2, GIPR (Homo sapiens, UniProt P48546, T345F); assay: as above; parameters: acylated tirzepatide to the full-length or modified; Flag; expressed in transfected cells; settings: GIPR T345F; CHO-K1; read-out: binding pIC50 (converted)
T2 sequence (P48546 22-466 T345F): T1 sequence (P48546 22-466 Y36A) with A15Y, T324F
Outline: as §2

[5] = read-out: cAMP pEC50 (converted)

Sequence of GLP-1R (Homo sapiens, UniProt P43220, Y148A) (P43220 24-463 Y148A): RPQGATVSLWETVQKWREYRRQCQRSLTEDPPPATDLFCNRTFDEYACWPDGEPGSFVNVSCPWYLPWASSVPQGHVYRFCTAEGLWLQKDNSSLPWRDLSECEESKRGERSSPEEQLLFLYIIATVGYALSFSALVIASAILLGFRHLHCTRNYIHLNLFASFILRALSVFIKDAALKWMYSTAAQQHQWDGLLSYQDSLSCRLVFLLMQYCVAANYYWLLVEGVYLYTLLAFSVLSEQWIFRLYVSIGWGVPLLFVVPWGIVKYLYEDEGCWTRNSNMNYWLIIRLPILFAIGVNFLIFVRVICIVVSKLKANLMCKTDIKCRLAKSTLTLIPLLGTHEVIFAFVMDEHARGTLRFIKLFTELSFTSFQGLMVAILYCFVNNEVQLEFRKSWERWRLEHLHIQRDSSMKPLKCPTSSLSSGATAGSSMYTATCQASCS
Sequence of GLP-1R (Homo sapiens, UniProt P43220, W214A) (P43220 24-463 W214A): as the sequence (P43220 24-463 Y148A) above, with A125Y, W191A counted along it

Question: Which EC50 (GLP-1R [1]; [5]) does the source give for `CCCCCCCCCCCCCCCC(=O)N[C@@H](CCC(=O)NCCCC[C@H](NC(=O)[C@H](CC(=O)O)NC(=O)[C@H](CO)NC(=O)[C@@H](NC(=O)[C@H](Cc1ccccc1)NC(=O)[C@@H](NC(=O)CNC(=O)[C@H](CCC(N)=O)NC(=O)C(C)(C)NC(=O)[C@@H](N)Cc1c[nH]cn1)[C@@H](C)O)[C@@H](C)O)C(=O)N[C@@H](CO)C(=O)N[C@@H](CCCCN)C(=O)N[C@@H](Cc1ccc(O)cc1)C(=O)N[C@@H](CC(C)C)C(=O)N[C@@H](CC(=O)O)C(=O)N[C@@H](CCC(=O)O)C(=O)N[C@@H](CCCNC(=N)N)C(=O)N[C@@H](C)C(=O)N[C@@H](C)C(=O)N[C@@H](CCC(N)=O)C(=O)N[C@@H](CC(=O)O)C(=O)N[C@@H](Cc1ccccc1)C(=O)N[C@H](C(=O)N[C@@H](CCC(N)=O)C(=O)N[C@@H](Cc1c[nH]c2ccccc12)C(=O)N[C@@H](CC(C)C)C(=O)N[C@@H](CC(C)C)C(=O)N[C@@H](CC(=O)O)C(=O)NCC(=O)NCC(=O)N1CCC[C@H]1C(=O)N[C@@H](CO)C(=O)N[C@@H](CO)C(=O)NCC(=O)N[C@@H](C)C(=O)N1CCC[C@H]1C(=O)N1CCC[C@H]1C(=O)N1CCC[C@H]1C(=O)N[C@@H](CO)C(N)=O)C(C)C)C(=O)O` [Peptide 20] here?
Answer: 0.00977 nM

Question: And the Emax (GLP-1R [1])?
Answer: 100.4 ± 0.94%

Question: And the EC50 (GLP-1R [2]; [5])?
Answer: 0.00501 nM

Question: And the Emax (GLP-1R [2])?
Answer: 101 ± 1.26%

Question: And the “binding Span” value (GIPR [3])?
Answer: 48.19 ± 2.73 % WT

Question: What about the IC50 (GIPR [3]) of the same molecule?
Answer: 16.2 nM

Question: What about the IC50 (GIPR [4]) of the same molecule?
Answer: 24 nM

Question: With `CC[C@H](C)[C@H](NC(=O)[C@H](CC(C)C)NC(=O)[C@H](Cc1c[nH]c2ccccc12)NC(=O)[C@H](CCC(N)=O)NC(=O)[C@@H](NC(=O)[C@H](Cc1ccccc1)NC(=O)[C@H](C)NC(=O)[C@H](CCCCNC(=O)COCCOCCNC(=O)COCCOCCNC(=O)CC[C@H](NC(=O)CCCCCCCCCCCCCCCCCCC(=O)O)C(=O)O)NC(=O)[C@H](CCC(N)=O)NC(=O)[C@H](C)NC(=O)[C@@H](NC(=O)[C@H](CCCCN)NC(=O)[C@H](CC(=O)O)NC(=O)[C@H](CC(C)C)NC(=O)C(C)(C)NC(=O)[C@@H](NC(=O)[C@H](CO)NC(=O)[C@H](Cc1ccc(O)cc1)NC(=O)[C@H](CC(=O)O)NC(=O)[C@H](CO)NC(=O)[C@@H](NC(=O)[C@H](Cc1ccccc1)NC(=O)[C@@H](NC(=O)CNC(=O)[C@H](CCC(=O)O)NC(=O)C(C)(C)NC(=O)[C@@H](N)Cc1ccc(O)cc1)[C@@H](C)O)[C@@H](C)O)[C@@H](C)CC)[C@@H](C)CC)C(C)C)C(=O)N[C@@H](C)C(=O)NCC(=O)NCC(=O)N1CCC[C@H]1C(=O)N[C@@H](CO)C(=O)N[C@@H](CO)C(=O)NCC(=O)N[C@@H](C)C(=O)N1CCC[C@H]1C(=O)N1CCC[C@H]1C(=O)N1CCC[C@H]1C(=O)N[C@@H](CO)C(N)=O` [Tirzepatide] as the molecule, how does the Emax (GLP-1R [1]) read?
Answer: 99.1 ± 1.05%

Question: What about the Emax (GLP-1R [2]) of the same molecule?
Answer: 102 ± 2.33%

Question: What about the “binding Span” value (GIPR [3]) of the same molecule?
Answer: 40.56 ± 12.64 % WT

Question: What about the IC50 (GIPR [3]) of the same molecule?
Answer: 275 nM

Question: What about the IC50 (GIPR [4]) of the same molecule?
Answer: 129 nM

— publication PMC8881610 (Nature Communications, 2022)
